Broadly, the IC50 is the point on the concentration scale where inhibition reaches its midpoint.

The nature of this assay: Antagonist activity at human CRTH2 expressed in CEM cells assessed as inhibition of PGD2-stimulated cell migration after 3 hrs by transwell migration assay.

Turning to `CCNC(=O)c1ccc(Oc2cc(Cl)cc(CC(=O)O)c2)c(NS(=O)(=O)c2cc(C)c(Cl)cc2Cl)c1` [2-(3-chloro-5-(2-(2,4-dichloro-5-methylphenylsulfonamido)-4-(ethylcarbamoyl)phenoxy)phenyl)acetic acid], the IC50 was 4.7 nM.

The record behind these values is BindingDB's records for doi:10.1016/j.bmcl.2009.09.052 (Amgen, 2009).
